Test results from ChEMBL document CHEMBL1201862, “PubChem BioAssay data set” (2004).
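All cell lines were grown in 96-well plates and treated with compound for 48 hours. Abbreviation: GI50, concentration required for 50% inhibition of growth.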 Calls of active or inactive are those of the source. No stated cut-off is given here; in the data, active = GI50 up to about 1.1 µM and inactive = higher.

How the values were obtained:
Experiment in all cases: inhibition of tumour cell growth, NCI panel, 48 h
NCI-H23 = test system: NCI-H23
M14 = test system: M14
UACC-62 = test system: UACC-62
SNB-19 = test system: SNB-19
SK-MEL-28 = test system: SK-MEL-28
COLO 205 = test system: COLO 205
MOLT-4 = test system: MOLT-4
UO-31 = test system: UO-31
LXFL 529 = test system: LXFL 529
SK-MEL-5 = test system: SK-MEL-5
IGROV-1 = test system: IGROV-1
A549 = test system: A549
SF-295 = test system: SF-295
OVCAR-4 = test system: OVCAR-4
HCT-116 = test system: HCT-116

Measured: GI50

Cc1nn(-c2ccccc2)c(S)c1C(=O)c1ccccc1
inactive: NCI-H23 43.5 µM | M14 31.1 µM | UACC-62 47.1 µM | SNB-19 41 µM | SK-MEL-28 33.5 µM | COLO 205 89.3 µM | MOLT-4 24.4 µM | UO-31 36 µM | LXFL 529 18.2 µM | SK-MEL-5 28.8 µM | IGROV-1 51.2 µM | A549 32.2 µM | SF-295 35.2 µM | OVCAR-4 40.7 µM

CC(C)(C)OC(=O)N[C@H]1CC(O)c2ccccc2N(CC(=O)O)C1=O (stereo partly specified)
inactive: NCI-H23 > 100 µM | M14 > 100 µM | UACC-62 > 100 µM | SNB-19 > 100 µM | SK-MEL-28 > 100 µM | COLO 205 > 100 µM | MOLT-4 > 100 µM | UO-31 > 100 µM | LXFL 529 > 100 µM | SK-MEL-5 > 100 µM | IGROV-1 > 100 µM | A549 > 100 µM | HCT-116 > 100 µM | SF-295 > 100 µM | OVCAR-4 > 100 µM

N=C(N)/N=C(/C=C/c1ccccc1)CC1OC(=O)c2ccccc21 (stereo unspecified)
inactive: M14 > 100 µM | UACC-62 42 µM | SNB-19 > 100 µM | COLO 205 > 100 µM | MOLT-4 > 100 µM | UO-31 > 100 µM | LXFL 529 > 100 µM | SK-MEL-5 > 100 µM | IGROV-1 > 100 µM | A549 > 100 µM | HCT-116 > 100 µM | SF-295 > 10 µM | OVCAR-4 > 100 µM

COc1ccc(NC(=O)C2=CC(=O)c3ccc(O)cc3C2=O)c(OC)c1
inactive: NCI-H23 > 100 µM | M14 > 100 µM | UACC-62 > 100 µM | SNB-19 > 100 µM | SK-MEL-28 > 100 µM | COLO 205 > 100 µM | MOLT-4 > 100 µM | LXFL 529 > 100 µM | SK-MEL-5 > 100 µM | IGROV-1 > 100 µM | A549 > 100 µM | HCT-116 > 100 µM | SF-295 > 100 µM | OVCAR-4 > 100 µM

CC12Oc3ccc4ccccc4c3CC1Cc1c(ccc3ccccc13)O2 (stereo unspecified)
inactive: NCI-H23 > 100 µM | M14 38.9 µM | SNB-19 45.5 µM | SK-MEL-28 > 100 µM | COLO 205 > 100 µM | UO-31 > 100 µM | LXFL 529 45.4 µM | A549 > 100 µM | HCT-116 > 100 µM | SF-295 30 µM | OVCAR-4 26.5 µM

Nc1ccc(CCN2CCN(c3cccc(C(F)(F)F)c3)CC2)cc1
inactive: NCI-H23 > 100 µM | M14 82.6 µM | UACC-62 > 100 µM | SNB-19 > 100 µM | SK-MEL-28 > 100 µM | COLO 205 > 100 µM | MOLT-4 4.38 µM | UO-31 5.74 µM | LXFL 529 > 100 µM | SK-MEL-5 55.2 µM | IGROV-1 > 100 µM | A549 > 100 µM | HCT-116 > 100 µM | SF-295 97.5 µM

COc1ccc(/C=N/N=C(\N)NO)c(OC)c1C
inactive: NCI-H23 19.5 µM | UACC-62 16.3 µM | SNB-19 65.2 µM | SK-MEL-28 5.57 µM | COLO 205 10.2 µM | MOLT-4 22.2 µM | UO-31 10.2 µM | LXFL 529 3.62 µM | IGROV-1 56.4 µM | A549 10.9 µM | HCT-116 24.5 µM | SF-295 21.1 µM | OVCAR-4 22.9 µM

C/C=C1\CCC2c3[nH]c4ccccc4c3CCN2C1 (stereo unspecified)
inactive: NCI-H23 77.4 µM | M14 21.5 µM | UACC-62 > 100 µM | SNB-19 > 100 µM | SK-MEL-28 > 100 µM | MOLT-4 76.4 µM | UO-31 38.6 µM | LXFL 529 > 100 µM | SK-MEL-5 51.2 µM | IGROV-1 > 100 µM | A549 > 100 µM | HCT-116 56 µM | SF-295 > 100 µM | OVCAR-4 32.1 µM

Cc1cc(=O)oc2cc3c(cc12)Oc1ccccc1O3
inactive: NCI-H23 89.3 µM | M14 > 100 µM | UACC-62 > 100 µM | SNB-19 > 100 µM | SK-MEL-28 > 100 µM | COLO 205 > 100 µM | MOLT-4 > 100 µM | UO-31 > 100 µM | LXFL 529 > 100 µM | SK-MEL-5 > 100 µM | IGROV-1 > 100 µM | A549 > 100 µM | HCT-116 44.9 µM | SF-295 43.5 µM | OVCAR-4 > 100 µM

O=C(CC1C(=O)c2ccccc2C1=C1C(=O)c2ccccc2C1=O)c1ccccc1 (stereo unspecified)
inactive: NCI-H23 > 100 µM | M14 > 100 µM | UACC-62 > 100 µM | SNB-19 > 100 µM | SK-MEL-28 > 100 µM | COLO 205 37.2 µM | MOLT-4 77.3 µM | UO-31 > 100 µM | LXFL 529 85.5 µM | SK-MEL-5 > 100 µM | IGROV-1 > 100 µM | A549 > 100 µM | SF-295 > 100 µM | OVCAR-4 77.6 µM

C1=CC2SSSC2C1 (stereo unspecified)
inactive: NCI-H23 > 100 µM | M14 > 100 µM | UACC-62 > 100 µM | SNB-19 > 100 µM | SK-MEL-28 > 100 µM | COLO 205 > 100 µM | MOLT-4 > 100 µM | UO-31 > 100 µM | LXFL 529 > 100 µM | SK-MEL-5 > 100 µM | IGROV-1 > 100 µM | A549 > 100 µM | HCT-116 > 100 µM | SF-295 > 100 µM | OVCAR-4 > 100 µM

S=C(N/N=C/c1ccccc1)NC1CC(c2ccccc2)Oc2ccccc21 (stereo unspecified)
inactive: NCI-H23 25.8 µM | M14 15.3 µM | UACC-62 48.8 µM | SNB-19 36.5 µM | SK-MEL-28 70 µM | COLO 205 > 100 µM | MOLT-4 > 10 µM | UO-31 > 100 µM | LXFL 529 > 100 µM | SK-MEL-5 11.1 µM | IGROV-1 > 100 µM | A549 26.8 µM | HCT-116 72.1 µM | SF-295 16.1 µM | OVCAR-4 16.9 µM

CCC1CC(C)=CCN1S(=O)(=O)c1ccc(C)cc1 (stereo unspecified)
inactive: M14 22 µM | UACC-62 15.5 µM | SNB-19 28.8 µM | COLO 205 16.5 µM | MOLT-4 28.2 µM | UO-31 11.3 µM | LXFL 529 12.9 µM | SK-MEL-5 13.9 µM | A549 21.5 µM | HCT-116 9.82 µM | SF-295 32.7 µM | OVCAR-4 39 µM

CCOc1ccc(NCC2CC/C(=C\c3ccc(Cl)cc3)C2=O)cc1 (stereo unspecified)
inactive: NCI-H23 > 48.9 µM | M14 20.4 µM | UACC-62 > 40.7 µM | SNB-19 49.1 µM | SK-MEL-28 50.2 µM | COLO 205 > 37.9 µM | MOLT-4 16.8 µM | UO-31 > 42.5 µM | LXFL 529 13.1 µM | SK-MEL-5 23 µM | IGROV-1 > 36 µM | A549 > 100 µM | HCT-116 31.1 µM | SF-295 > 100 µM | OVCAR-4 39.7 µM

CN/C(=N\C#N)N(Cc1ccccc1)Cc1ccccc1
inactive: NCI-H23 > 100 µM | M14 > 100 µM | UACC-62 > 100 µM | SNB-19 > 100 µM | SK-MEL-28 > 100 µM | COLO 205 > 100 µM | MOLT-4 > 100 µM | UO-31 > 100 µM | LXFL 529 > 100 µM | SK-MEL-5 > 100 µM | IGROV-1 > 100 µM | A549 > 100 µM | HCT-116 > 100 µM | SF-295 > 100 µM | OVCAR-4 > 100 µM

O=C(Nc1ccc(Cl)cc1)C1C(=O)C(=O)N(c2ccc(Cl)cc2)C1=O (stereo unspecified)
inactive: NCI-H23 > 100 µM | M14 > 100 µM | UACC-62 > 100 µM | SNB-19 76.7 µM | SK-MEL-28 > 100 µM | COLO 205 > 100 µM | MOLT-4 71.3 µM | UO-31 79.6 µM | LXFL 529 59.2 µM | SK-MEL-5 > 100 µM | IGROV-1 > 100 µM | A549 > 100 µM | HCT-116 53.7 µM | SF-295 93.8 µM

NN/C(Cc1ccccc1)=N/NC(N)=S
inactive: NCI-H23 > 10 µM | M14 > 100 µM | UACC-62 > 100 µM | SK-MEL-28 > 100 µM | COLO 205 > 100 µM | MOLT-4 49.9 µM | UO-31 > 100 µM | LXFL 529 > 100 µM | IGROV-1 > 100 µM | A549 > 100 µM | SF-295 > 100 µM | OVCAR-4 > 100 µM

COc1ccc(OC)c(/C=C/C(=O)C(C)(C)C)c1
inactive: NCI-H23 19.6 µM | M14 15.7 µM | UACC-62 9.55 µM | SNB-19 17.2 µM | SK-MEL-28 17.2 µM | COLO 205 19 µM | MOLT-4 13.6 µM | LXFL 529 19.2 µM | SK-MEL-5 15 µM | IGROV-1 18.2 µM | A549 29.4 µM | HCT-116 17.9 µM | SF-295 25 µM | OVCAR-4 22.6 µM

O=C1CCC2(c3ccc(F)cc3)Nc3ccccc3N12 (stereo unspecified)
inactive: NCI-H23 > 100 µM | M14 > 100 µM | UACC-62 > 100 µM | SK-MEL-28 > 100 µM | COLO 205 > 100 µM | MOLT-4 > 100 µM | UO-31 > 100 µM | LXFL 529 > 100 µM | SK-MEL-5 > 100 µM | IGROV-1 > 100 µM | A549 > 100 µM | SF-295 > 100 µM | OVCAR-4 > 100 µM

O=c1ccn(/C=C/C(O)C(O)CO)c(=O)[nH]1 (stereo unspecified)
inactive: NCI-H23 > 100 µM | UACC-62 > 100 µM | SNB-19 > 100 µM | SK-MEL-28 > 100 µM | COLO 205 > 100 µM | MOLT-4 > 100 µM | UO-31 > 100 µM | LXFL 529 > 100 µM | SK-MEL-5 > 100 µM | IGROV-1 > 100 µM | A549 > 100 µM | HCT-116 > 100 µM | SF-295 > 100 µM | OVCAR-4 > 100 µM
